Legend:
control cybrids (JCP213) = test: Control cybrid growth in glucose-deprived medium; type: cell-based, human; details: same range of concentration
Protocol: The cybrid cell lines JCP213 (WT control) and JCP239 (NARP T8993G, Manfredi G et al.) were grown in high glucose (4.5 g/L final concentration) DMEM (supplemented with fetal bovine serum—FBS—at 5% final concentration, sodium pyruvate at 1 mM final concentration, L-glutamine at 4 mM final concentration and uridine at 200 μM final concentration) and then shifted in the same DMEM-based medium except that it is deprived of glucose to encourage the cells to rely on OXPHOS (OXidative PHOSphorylation) rather than glycolysis, supplemented with: • various concentrations of DSF; or • as control, with equivalent quantity of DMSO (compound vehicle, negative control); or • with 150 μM dihydrolipoic acid (DHLA, positive control, as in previous studies (Couplan E et al. & Aiyar R S et al.). All the cells were grown at 37° C. in presence of 5% CO2.

[1] = tested on: mitochondrial complex I respiration in MELAS neuronal cybrid cells; test: Complex I linked respiration in permeabilized MELAS cybrid cells (Oroboros oxygraph); type: cell-based, human; details: 48 h exposure, low glucose medium (0.5 g/l)
Protocol: FIG. 6: Effect of DSF on mitochondrial complex I respiration in MELAS neuronal cybrid cells after 48 h exposure in low glucose medium (0.5 g/l).
FIG. 7: Effect of DSF at 10 nM after 48 h exposure on mitochondrial complex I (left) and complex IV (right) respiration in permeabilized MELAS neuronal cybrid cells, in low glucose medium (0.5 g/l).
Cellular oxygen consumption was measured at 37° C. in MELAS cybrid cells treated vs untreated mutant cells on a high-resolution oxygraph (Oroboros), as described elsewhere (Desquiret-Dumas et al., 2012).
Briefly treated and untreated mutant cells were trypsinized and the pellet was resuspended in the respiratory buffer (KH2PO4 10 mM, mannitol 300 mM, KCl 10 mM, MgCl2 5 mM, pH 7.4) containing 15 μg/million cells of digitonin. Cells were incubated at room temperature during 2.5 minutes and the digitonin action was stopped by adding five volumes of the respiration buffer supplemented with 1 mg/ml of BSA. […] The oxygen consumption was measured in state II (5 mM malate+pyruvate), state III (5 mM malate+pyruvate+1.5 mM ADP+0.5 mM NAD or 5 mM succinate+10 μM rotenone+1.5 mM ADP+0.5 mM NAD), state IV (8 μg/ml oligomycin) and maximal cytochrome c oxidase capacity (4 mM ascorbate+0.2 mM TMPD). After oxygraphic measurement, […] of cell suspension was removed from the chamber and the protein concentration was measured using bicinchoninic acid.

[2] = tested on: all the tested mutant strains; test: Halo test of growth on respiratory medium, all strains together (FIG. 1A); type: cell-based, Saccharomyces cerevisiae; details: at different extents
Protocol: A/ Effect of DSF on growth of various mutant yeast strains on a respiratory medium as detected by halo tests.
Each of the various Saccharomyces cerevisiae yeast strains used in examples 1 to 3 contain different specific mutations modeling human mutations resulting in mitochondrial diseases. At different extents, all these yeast strains present growth defect when grown on respiratory medium such as ethanol or glycerol at 28° C. or 36° C. (depending on the strain). […]
More precisely, 200 μL of the various yeast mutant strain grown in liquid YPD rich fermentable medium (1% Yeast Extract, 0.5% Bacto Peptone, 2% Glucose) at 0.4 OD600 were spread on agar-based solid respiratory medium: either YPG (1% Yeast Extract, 0.5% Bacto Peptone, 2% glycerol) or YPE (1% Yeast Extract, 0.5% Bacto Peptone, 2% ethanol). Small sterile filters were then placed on the agar surface and increasing concentrations of DSF were added to the filters at the indicated quantities. […]

CCN(CC)C(=S)SSC(=S)N(CC)CC [DSF, 1-(diethylthiocarbamoyldisulfanyl)-N,N-diethyl-methanethioamide]
effect on growth of control cybrids (control cybrids (JCP213)): no effect
effect on complex I linked respiration ([1]; FIG. 6, various concentrations): increases complex I linked respiration
effect on complex I linked respiration ([1]; FIG. 7, 10 nM, permeabilized cells): increases mitochondrial complex I
effect on growth defect on non-fermentable (respiratory) medium [2]: suppresses the growth defect
